Values belong to the compound of their own block, whether it stands above or below them. Activity calls are given as the source filed them. The calls are words filed in the database; no cut-off is given here.
What was measured:
[1] = target: T1, D(4) dopamine receptor (Homo sapiens) (UniProt P21917); experiment: Inhibition of human dopamine D4 receptor at 10 uM
T1 sequence (whole entry): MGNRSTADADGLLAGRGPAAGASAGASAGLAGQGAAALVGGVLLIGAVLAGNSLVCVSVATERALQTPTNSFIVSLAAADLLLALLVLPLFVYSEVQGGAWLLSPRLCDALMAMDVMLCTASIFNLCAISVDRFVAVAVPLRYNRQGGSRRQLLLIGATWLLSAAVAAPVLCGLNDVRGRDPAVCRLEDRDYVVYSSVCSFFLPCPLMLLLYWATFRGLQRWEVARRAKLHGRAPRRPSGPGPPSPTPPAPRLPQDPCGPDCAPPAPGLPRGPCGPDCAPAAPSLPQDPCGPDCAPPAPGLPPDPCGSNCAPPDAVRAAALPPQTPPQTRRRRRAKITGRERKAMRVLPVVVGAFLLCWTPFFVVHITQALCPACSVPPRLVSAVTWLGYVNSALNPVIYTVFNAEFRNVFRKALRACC

[2] = target: T2, D(4) dopamine receptor (Homo sapiens, UniProt P21917); experiment: Inhibition of human dopamine D4 receptor
T2 sequence (P21917 whole entry): T1 sequence (whole entry)

[3] = Fraction unbound in rat plasma; assay type: ADME, cell-free
[4] = Ratio of drug level in Sprague-Dawley rat brain to plasma at 10 mg/kg, ip after 0.25 hrs; assay type: ADME, organism-based; design: dose 10 mg/kg, route intraperitoneal
[5] = target: Cytochrome P450 2C9 (Homo sapiens, UniProt P11712); experiment: Inhibition of human CYP2C9 by electrospray ionization; assay type: ADME
[6] = test system: Rattus norvegicus; experiment: Reversal of cocaine-induced hyperlocomotion in Sprague-Dawley rat at 10 mg/kg, ip; assay type: functional, organism-based; design: dose 10 mg/kg
[7] = test system: Rattus norvegicus; experiment: Reversal of cocaine-induced hyperlocomotion in Sprague-Dawley rat at 3 mg/kg, ip; assay type: functional, organism-based; design: dose 3 mg/kg
[8] = target: T3, Cytochrome P450 1A2 (Homo sapiens, UniProt P05177); experiment: Inhibition of human CYP1A2 by electrospray ionization; assay type: ADME
T3 sequence (P05177 whole entry): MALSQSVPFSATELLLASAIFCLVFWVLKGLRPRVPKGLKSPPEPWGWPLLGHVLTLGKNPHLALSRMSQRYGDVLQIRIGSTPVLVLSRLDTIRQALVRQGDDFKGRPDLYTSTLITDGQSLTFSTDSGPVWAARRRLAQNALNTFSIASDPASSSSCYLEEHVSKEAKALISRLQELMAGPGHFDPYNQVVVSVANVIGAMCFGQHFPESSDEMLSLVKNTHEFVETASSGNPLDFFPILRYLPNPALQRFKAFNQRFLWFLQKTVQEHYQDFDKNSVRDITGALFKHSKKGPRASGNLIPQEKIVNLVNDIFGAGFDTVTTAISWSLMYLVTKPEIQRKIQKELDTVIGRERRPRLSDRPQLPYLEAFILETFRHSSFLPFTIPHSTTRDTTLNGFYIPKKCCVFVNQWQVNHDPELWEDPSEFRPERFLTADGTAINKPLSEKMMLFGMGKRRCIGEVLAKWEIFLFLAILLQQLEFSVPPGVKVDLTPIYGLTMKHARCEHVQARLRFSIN

[9] = target: Cytochrome P450 2D6 (Homo sapiens, UniProt P10635); experiment: Inhibition of human CYP2D6 by electrospray ionization; assay type: ADME
[10] = target: T4, D(2) dopamine receptor (Homo sapiens, UniProt P14416); experiment: Inhibition of human dopamine D2 receptor
[11] = Drug uptake in Sprague-Dawley rat plasma at 10 mg/kg, ip after 0.25 hrs; assay type: ADME, organism-based; design: dose 10 mg/kg, route intraperitoneal
[12] = target: D(1A) dopamine receptor (Homo sapiens, UniProt P21728); experiment: Inhibition of human dopamine D1 receptor
[13] = target: Cytochrome P450 3A4 (Homo sapiens, UniProt P08684); experiment: Inhibition of human CYP3A4 by electrospray ionization; assay type: ADME
[14] = target: D(3) dopamine receptor (Homo sapiens, UniProt P35462); experiment: Inhibition of human dopamine D3 receptor
[15] = Drug uptake in Sprague-Dawley rat brain at 10 mg/kg, ip after 0.25 hrs; assay type: ADME, organism-based; design: dose 10 mg/kg, route intraperitoneal
[16] = Fraction unbound in human plasma; assay type: ADME, cell-free
[17] = target: D(1B) dopamine receptor (Homo sapiens) (UniProt P21918); experiment: Inhibition of human dopamine D5 receptor
[18] = target: T4, D(2) dopamine receptor; experiment: Inhibition of human dopamine D2S receptor
[19] = target: T4, D(2) dopamine receptor; experiment: Inhibition of human dopamine D2L receptor
[20] = target: Sigma non-opioid intracellular receptor 1 (Homo sapiens) (UniProt Q99720); experiment: Binding affinity to sigma 1 receptor (unknown origin) at 10 uM by radioligand binding assay
[21] = target: T5, Alpha-1A adrenergic receptor (Homo sapiens) (UniProt P35348); experiment: Binding affinity to adrenergic alpha1A receptor (unknown origin) at 10 uM by radioligand binding assay
T5 sequence (whole entry): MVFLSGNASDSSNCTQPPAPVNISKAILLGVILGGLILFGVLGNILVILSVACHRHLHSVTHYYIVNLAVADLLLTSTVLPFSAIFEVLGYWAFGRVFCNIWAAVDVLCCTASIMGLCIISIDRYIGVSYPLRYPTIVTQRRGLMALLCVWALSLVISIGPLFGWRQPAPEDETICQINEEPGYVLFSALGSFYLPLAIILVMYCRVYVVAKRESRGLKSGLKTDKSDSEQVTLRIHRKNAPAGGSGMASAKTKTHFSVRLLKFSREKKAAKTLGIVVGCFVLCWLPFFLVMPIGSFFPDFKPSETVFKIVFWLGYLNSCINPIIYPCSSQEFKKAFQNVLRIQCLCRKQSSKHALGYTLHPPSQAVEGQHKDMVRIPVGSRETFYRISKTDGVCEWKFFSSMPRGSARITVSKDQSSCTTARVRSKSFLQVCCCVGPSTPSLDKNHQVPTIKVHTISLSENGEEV

[22] = target: Sodium-dependent noradrenaline transporter (Homo sapiens) (UniProt P23975); experiment: Binding affinity to norepinephrine transporter (unknown origin) at 10 uM by radioligand binding assay
[23] = target: Histamine H1 receptor (Homo sapiens) (UniProt P35367); experiment: Binding affinity to histamine H1 receptor (unknown origin) at 10 uM by radioligand binding assay
[24] = target: Sodium-dependent dopamine transporter (Homo sapiens) (UniProt Q01959); experiment: Binding affinity to dopamine transporter (unknown origin) at 10 uM by radioligand binding assay
Chain of Sodium-dependent dopamine transporter (Homo sapiens) (Q01959 whole entry): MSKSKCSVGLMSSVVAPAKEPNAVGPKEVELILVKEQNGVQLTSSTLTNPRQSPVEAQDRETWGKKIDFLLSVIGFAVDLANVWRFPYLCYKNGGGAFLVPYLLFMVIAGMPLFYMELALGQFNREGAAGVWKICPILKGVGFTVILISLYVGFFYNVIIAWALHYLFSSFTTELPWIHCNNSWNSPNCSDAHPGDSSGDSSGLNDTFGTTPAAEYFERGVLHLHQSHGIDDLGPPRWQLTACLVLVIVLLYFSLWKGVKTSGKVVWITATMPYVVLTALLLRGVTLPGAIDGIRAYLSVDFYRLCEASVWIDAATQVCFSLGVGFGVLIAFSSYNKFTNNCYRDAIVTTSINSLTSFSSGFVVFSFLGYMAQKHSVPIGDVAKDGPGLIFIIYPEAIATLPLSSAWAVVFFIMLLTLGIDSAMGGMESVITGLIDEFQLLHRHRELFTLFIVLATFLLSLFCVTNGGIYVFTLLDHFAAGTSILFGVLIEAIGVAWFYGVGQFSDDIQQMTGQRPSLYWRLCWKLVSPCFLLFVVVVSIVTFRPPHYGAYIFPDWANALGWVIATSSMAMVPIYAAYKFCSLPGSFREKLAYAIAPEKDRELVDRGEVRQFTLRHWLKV

Chain of D(1A) dopamine receptor (P21728 whole entry): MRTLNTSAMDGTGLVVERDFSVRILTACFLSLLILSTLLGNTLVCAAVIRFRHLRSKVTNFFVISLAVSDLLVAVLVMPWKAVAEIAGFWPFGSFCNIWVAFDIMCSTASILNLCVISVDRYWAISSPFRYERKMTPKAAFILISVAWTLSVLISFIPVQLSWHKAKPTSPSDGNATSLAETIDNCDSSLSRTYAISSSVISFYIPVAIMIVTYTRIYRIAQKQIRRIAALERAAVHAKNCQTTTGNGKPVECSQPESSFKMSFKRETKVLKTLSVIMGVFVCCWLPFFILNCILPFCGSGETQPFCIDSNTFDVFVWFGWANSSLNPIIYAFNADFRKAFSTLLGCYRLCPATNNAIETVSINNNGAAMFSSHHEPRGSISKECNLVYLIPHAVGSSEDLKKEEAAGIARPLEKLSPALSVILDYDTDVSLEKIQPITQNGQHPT
Chain of D(3) dopamine receptor (P35462 whole entry): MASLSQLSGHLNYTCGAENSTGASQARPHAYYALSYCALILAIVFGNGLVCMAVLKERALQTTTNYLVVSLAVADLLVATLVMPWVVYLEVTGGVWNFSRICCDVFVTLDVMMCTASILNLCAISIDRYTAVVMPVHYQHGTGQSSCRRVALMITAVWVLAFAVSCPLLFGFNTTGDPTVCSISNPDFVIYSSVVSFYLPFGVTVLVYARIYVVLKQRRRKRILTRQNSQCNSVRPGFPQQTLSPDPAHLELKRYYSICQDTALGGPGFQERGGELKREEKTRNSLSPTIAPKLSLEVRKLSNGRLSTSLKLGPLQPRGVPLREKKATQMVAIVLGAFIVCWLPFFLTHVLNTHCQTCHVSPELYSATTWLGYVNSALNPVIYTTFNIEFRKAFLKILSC
Chain of D(1B) dopamine receptor (Homo sapiens) (P21918 whole entry): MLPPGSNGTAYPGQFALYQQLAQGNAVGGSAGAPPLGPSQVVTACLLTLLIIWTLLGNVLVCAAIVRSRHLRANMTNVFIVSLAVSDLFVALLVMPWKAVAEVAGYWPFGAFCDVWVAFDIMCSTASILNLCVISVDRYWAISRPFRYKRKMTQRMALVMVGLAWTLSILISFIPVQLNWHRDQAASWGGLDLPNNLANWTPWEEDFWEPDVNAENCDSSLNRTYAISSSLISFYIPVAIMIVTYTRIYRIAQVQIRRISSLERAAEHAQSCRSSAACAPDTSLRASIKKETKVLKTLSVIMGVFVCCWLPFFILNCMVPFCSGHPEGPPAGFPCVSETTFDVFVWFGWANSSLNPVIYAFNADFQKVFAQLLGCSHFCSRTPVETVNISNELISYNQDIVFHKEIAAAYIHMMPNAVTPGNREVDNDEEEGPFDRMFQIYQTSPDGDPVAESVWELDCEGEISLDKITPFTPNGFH
T4 sequence (P14416 whole entry): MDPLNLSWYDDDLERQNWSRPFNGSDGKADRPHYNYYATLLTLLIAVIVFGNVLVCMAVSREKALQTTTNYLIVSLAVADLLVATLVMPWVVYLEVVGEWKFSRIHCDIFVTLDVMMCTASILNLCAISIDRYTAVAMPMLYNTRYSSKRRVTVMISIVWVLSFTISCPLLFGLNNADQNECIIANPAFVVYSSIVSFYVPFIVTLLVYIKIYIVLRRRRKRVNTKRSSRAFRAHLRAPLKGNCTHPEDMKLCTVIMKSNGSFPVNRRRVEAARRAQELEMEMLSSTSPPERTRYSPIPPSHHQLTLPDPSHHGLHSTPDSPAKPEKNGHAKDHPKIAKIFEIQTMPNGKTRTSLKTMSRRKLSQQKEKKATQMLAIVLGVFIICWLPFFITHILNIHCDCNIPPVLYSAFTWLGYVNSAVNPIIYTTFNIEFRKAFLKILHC
Chain of Cytochrome P450 2C9 (P11712 whole entry): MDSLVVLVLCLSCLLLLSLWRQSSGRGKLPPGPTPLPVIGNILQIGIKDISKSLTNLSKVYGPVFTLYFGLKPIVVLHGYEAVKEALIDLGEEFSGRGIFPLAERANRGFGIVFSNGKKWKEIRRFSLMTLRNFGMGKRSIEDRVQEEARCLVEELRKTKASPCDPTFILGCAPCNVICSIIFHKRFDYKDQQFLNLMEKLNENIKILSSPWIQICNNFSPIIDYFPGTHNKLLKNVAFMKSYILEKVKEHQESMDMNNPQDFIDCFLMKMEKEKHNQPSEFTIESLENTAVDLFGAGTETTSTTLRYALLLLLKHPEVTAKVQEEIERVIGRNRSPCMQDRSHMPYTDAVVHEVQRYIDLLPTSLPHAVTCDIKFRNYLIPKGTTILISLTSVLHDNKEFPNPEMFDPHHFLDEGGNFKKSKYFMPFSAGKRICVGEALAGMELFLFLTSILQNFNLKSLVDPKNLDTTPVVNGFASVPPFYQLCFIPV
Chain of Cytochrome P450 2D6 (P10635 whole entry): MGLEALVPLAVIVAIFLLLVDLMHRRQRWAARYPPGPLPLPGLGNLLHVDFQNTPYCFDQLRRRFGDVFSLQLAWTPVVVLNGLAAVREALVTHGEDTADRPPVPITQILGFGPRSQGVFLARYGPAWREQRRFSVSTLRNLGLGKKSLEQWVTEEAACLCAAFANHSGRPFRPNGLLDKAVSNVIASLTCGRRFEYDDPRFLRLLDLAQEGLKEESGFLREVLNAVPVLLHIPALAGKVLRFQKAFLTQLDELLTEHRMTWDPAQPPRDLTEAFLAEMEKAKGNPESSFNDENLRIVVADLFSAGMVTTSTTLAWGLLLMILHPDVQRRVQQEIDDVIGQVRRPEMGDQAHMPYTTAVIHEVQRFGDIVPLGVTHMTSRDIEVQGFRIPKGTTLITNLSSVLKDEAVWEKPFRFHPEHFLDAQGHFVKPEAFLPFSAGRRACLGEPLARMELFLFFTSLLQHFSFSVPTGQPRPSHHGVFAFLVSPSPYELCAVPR
Chain of Cytochrome P450 3A4 (P08684 whole entry): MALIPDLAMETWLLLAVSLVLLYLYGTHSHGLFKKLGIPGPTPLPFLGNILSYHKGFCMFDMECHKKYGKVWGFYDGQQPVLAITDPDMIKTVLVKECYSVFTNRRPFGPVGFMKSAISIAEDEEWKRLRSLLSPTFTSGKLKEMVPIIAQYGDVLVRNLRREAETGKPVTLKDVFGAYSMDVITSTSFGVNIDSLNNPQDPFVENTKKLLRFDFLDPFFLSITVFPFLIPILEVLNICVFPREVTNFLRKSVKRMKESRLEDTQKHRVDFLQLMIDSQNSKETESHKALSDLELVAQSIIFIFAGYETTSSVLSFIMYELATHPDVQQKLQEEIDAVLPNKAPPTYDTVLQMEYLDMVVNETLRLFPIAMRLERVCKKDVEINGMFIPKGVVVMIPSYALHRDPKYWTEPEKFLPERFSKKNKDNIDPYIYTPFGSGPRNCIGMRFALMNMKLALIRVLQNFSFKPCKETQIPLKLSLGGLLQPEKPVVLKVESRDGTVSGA
Chain of Sodium-dependent noradrenaline transporter (Homo sapiens) (P23975 whole entry): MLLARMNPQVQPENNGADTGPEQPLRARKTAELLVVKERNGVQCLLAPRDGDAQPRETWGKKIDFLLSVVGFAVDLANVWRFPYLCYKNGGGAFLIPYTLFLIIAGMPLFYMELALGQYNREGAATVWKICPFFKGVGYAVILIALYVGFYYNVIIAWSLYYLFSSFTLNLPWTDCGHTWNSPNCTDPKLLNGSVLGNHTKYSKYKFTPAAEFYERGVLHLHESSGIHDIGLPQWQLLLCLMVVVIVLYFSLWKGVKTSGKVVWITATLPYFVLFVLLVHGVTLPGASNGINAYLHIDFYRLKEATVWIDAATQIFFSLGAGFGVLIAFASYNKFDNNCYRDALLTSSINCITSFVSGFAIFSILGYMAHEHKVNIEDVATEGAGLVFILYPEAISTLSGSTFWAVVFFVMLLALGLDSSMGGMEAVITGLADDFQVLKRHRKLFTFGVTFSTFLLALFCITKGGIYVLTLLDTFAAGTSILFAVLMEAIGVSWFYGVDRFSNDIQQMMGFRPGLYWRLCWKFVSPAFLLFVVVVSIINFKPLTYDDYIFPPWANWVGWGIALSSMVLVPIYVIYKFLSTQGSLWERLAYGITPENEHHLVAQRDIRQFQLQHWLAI
Chain of Sigma non-opioid intracellular receptor 1 (Homo sapiens) (Q99720 whole entry): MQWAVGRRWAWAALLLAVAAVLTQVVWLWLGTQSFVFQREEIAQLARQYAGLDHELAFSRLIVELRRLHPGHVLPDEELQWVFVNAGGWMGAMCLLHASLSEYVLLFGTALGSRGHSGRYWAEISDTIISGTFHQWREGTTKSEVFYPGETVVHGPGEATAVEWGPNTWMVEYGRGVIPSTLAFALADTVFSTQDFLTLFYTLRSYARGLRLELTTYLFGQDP

inhibition [1]: 54%
IC50 [2]: 3.68 µM
Ki [2]: 1.02 µM
Structure (SMILES): Cc1ccccc1CN1CCOC(CCc2ccccc2)C1 (racemic)

inhibition [1]: 13%
Structure (SMILES): c1ccc(CCC2CN(Cc3ccncc3)CCO2)cc1 (racemic)

inhibition [1]: 17%
Structure (SMILES): Cn1c(N2CCOC(CCc3ccccc3)C2)nc2ccccc21 (racemic)

inhibition [1]: 5%
Structure (SMILES): O=C(Nc1ccc(F)cc1)N1CCOC(CCc2ccccc2)C1 (racemic)

inhibition [1]: 88%
IC50 [2]: 1.14 µM
Ki [2]: 0.32 µM
Structure (SMILES): Fc1ccc(CN2CCOC(CCc3ccccc3)C2)cc1 (racemic)

fraction unbound [3]: 0.133
Kp at 0.25 h [4]: 1.8
IC50 [5]: 4.8 µM
IC50 [8]: 13.1 µM
IC50 [9]: 12 µM
IC50 [10]: > 100 µM
Ki [10]: > 100 µM
concentration at 0.25 h [11]: 1940 nM
IC50 [12]: > 100 µM
Ki [12]: > 100 µM
IC50 [13]: 15.6 µM
IC50 [14]: 46.2 µM
Ki [14]: 15.7 µM
concentration at 0.25 h [15]: 3560 nM
IC50 [2]: 0.18 µM
Ki [2]: 0.07 µM
fraction unbound [16]: 0.012
Structure (SMILES): c1ccc(CC[C@@H]2CN(Cc3nc4ccccc4[nH]3)CCO2)cc1
Activity [6]: inactive
Activity [7]: inactive

inhibition [1]: 5%
Structure (SMILES): c1ccc(CCC2CN(c3ccccc3)CCO2)cc1 (racemic)

inhibition [1]: 51%
IC50 [2]: 3.88 µM
Ki [2]: 1.07 µM
Structure (SMILES): Fc1cccc(F)c1CN1CCOC(CCc2ccccc2)C1 (racemic)

inhibition [1]: 98%
INH [17]: > 20 µM
INH [18]: > 20 µM
INH [12]: > 20 µM
IC50 [19]: 16.5 µM
IC50 [14]: 8.17 µM
Ki [14]: 2.77 µM
IC50 [2]: 0.17 µM
Ki [2]: 0.046 µM
Structure (SMILES): COc1ccc(CN2CCOC(CCc3ccccc3)C2)cc1 (racemic)

IC50 [10]: > 100 µM
Ki [10]: > 100 µM
IC50 [12]: > 100 µM
Ki [12]: > 100 µM
IC50 [14]: 76.4 µM
Ki [14]: 25.9 µM
IC50 [2]: > 100 µM
Ki [2]: > 100 µM
Structure (SMILES): c1ccc(CC[C@H]2CN(Cc3nc4ccccc4[nH]3)CCO2)cc1

inhibition [1]: 35%
Structure (SMILES): c1ccc(CCC2CN(Cc3cccnc3)CCO2)cc1 (racemic)

inhibition [1]: 96%
INH [17]: > 20 µM
INH [18]: > 20 µM
INH [12]: > 20 µM
Ki [19]: 5.5 µM
IC50 [14]: 8.17 µM
Ki [14]: 2.77 µM
IC50 [2]: 0.23 µM
Ki [2]: 0.065 µM
Structure (SMILES): FC(F)(F)Oc1ccc(CN2CCO[C@H](CCc3ccccc3)C2)cc1

IC50 [10]: > 100 µM
Ki [10]: > 100 µM
IC50 [12]: > 100 µM
Ki [12]: > 100 µM
IC50 [14]: 31.8 µM
Ki [14]: 10.8 µM
IC50 [2]: 0.36 µM
Ki [2]: 0.14 µM
Structure (SMILES): c1ccc(CCC2CN(Cc3nc4ccccc4[nH]3)CCO2)cc1 (racemic)

inhibition [1]: 88%
IC50 [2]: 0.39 µM
Ki [2]: 0.11 µM
Structure (SMILES): FC(F)(F)Oc1cccc(CN2CCOC(CCc3ccccc3)C2)c1 (racemic)

inhibition [1]: 2%
Structure (SMILES): O=S(=O)(c1ccccc1)N1CCOC(CCc2ccccc2)C1 (racemic)

inhibition [1]: 94%
INH [17]: > 20 µM
INH [18]: > 20 µM
INH [12]: > 20 µM
Ki [19]: 5.5 µM
IC50 [14]: 8.17 µM
Ki [14]: 2.77 µM
IC50 [2]: 0.16 µM
Ki [2]: 0.043 µM
Structure (SMILES): FC(F)(F)Oc1ccc(CN2CCOC(CCc3ccccc3)C2)cc1 (racemic)

inhibition [1]: 23%
Structure (SMILES): c1ccc(CCC2CN(Cc3ccccn3)CCO2)cc1 (racemic)

inhibition [1]: 17%
Structure (SMILES): Cc1ccc(C(=O)N2CCOC(CCc3ccccc3)C2)cc1 (racemic)

inhibition [1]: 97%
INH [17]: > 20 µM
INH [18]: > 20 µM
INH [12]: > 20 µM
INH [19]: > 20 µM
INH [14]: > 20 µM
IC50 [2]: 0.29 µM
Ki [2]: 0.081 µM
Structure (SMILES): Clc1ccc(CN2CCOC(CCc3ccccc3)C2)cc1 (racemic)

inhibition [1]: 74%
IC50 [2]: 1.48 µM
Ki [2]: 0.41 µM
Structure (SMILES): c1ccc(CCC2CN(Cc3ccccc3)CCO2)cc1 (racemic)

fraction unbound [3]: 0.039
Kp at 0.25 h [4]: 2
Activity [20]: 99%
IC50 [5]: > 30 µM
IC50 [8]: > 30 µM
inhibition [1]: 96%
Activity [21]: 77%
INH [17]: > 20 µM
IC50 [9]: 18 µM
Activity [22]: 68%
INH [18]: > 20 µM
concentration at 0.25 h [11]: 482 nM
INH [12]: > 20 µM
IC50 [13]: > 30 µM
INH [19]: > 20 µM
INH [14]: > 20 µM
concentration at 0.25 h [15]: 987 nM
Activity [23]: 93%
IC50 [2]: 0.13 µM
Ki [2]: 0.036 µM
Activity [24]: 72%
fraction unbound [16]: 0.061
Structure (SMILES): Clc1ccc(CN2CCO[C@H](CCc3ccccc3)C2)cc1
Activity [6]: Active

Source: ChEMBL document CHEMBL3352711, “Discovery and Characterization of ML398, a Potent and Selective Antagonist of the D4 Receptor with in Vivo Activity” (ACS Med Chem Lett, 2014)
